Patent US20260356804A1, “SODIUM CHANNEL BLOCKING COMPOUNDS, DERIVATIVES THEREOF, AND METHODS OF THEIR USE” (LATIGO BIOTHERAPEUTICS, INC., priority 2022, published 2026)
Like-named read-outs stand apart in the source and are kept apart here.

Biological target: T1, human Nav1.8/b3 (Homo sapiens, UniProt Q9Y5Y9)
T1 construct: expressed in transfected cells; host or cells: CHO
Test: Compound Profiling Human NaV1.8/β3 Cell Line—SyncroPatch384PE Assay (automated patch clamp, stably transfected CHO cells)
Format: cell-based
Settings: Nav1.8/b3 CHO cells

[1] = P1 (IC50, resting state block), P1 measurement, resting state block, holding potential −120 mV, second set of compounds
[2] = P2 (IC50, inactivated state block), P2 measurement, inactivated state block, inactivation step −35 mV 10 sec, second set of compounds
[3] = P1 (IC50, resting state block), P1 measurement, resting state block, holding potential −120 mV, fourth set of compounds
[4] = P2 (IC50, inactivated state block), P2 measurement, inactivated state block, inactivation step −35 mV 10 sec, fourth set of compounds
[5] = P1 (IC50, resting state block), P1 measurement, resting state block, holding potential −120 mV, first set of compounds
[6] = P2 (IC50, inactivated state block), P2 measurement, inactivated state block, inactivation step −35 mV 10 sec, first set of compounds
[7] = P1 (IC50, resting state block), P1 measurement, resting state block, holding potential −120 mV, third set of compounds
[8] = P2 (IC50, inactivated state block), P2 measurement, inactivated state block, inactivation step −35 mV 10 sec, third set of compounds

T1 sequence (Q9Y5Y9 whole entry): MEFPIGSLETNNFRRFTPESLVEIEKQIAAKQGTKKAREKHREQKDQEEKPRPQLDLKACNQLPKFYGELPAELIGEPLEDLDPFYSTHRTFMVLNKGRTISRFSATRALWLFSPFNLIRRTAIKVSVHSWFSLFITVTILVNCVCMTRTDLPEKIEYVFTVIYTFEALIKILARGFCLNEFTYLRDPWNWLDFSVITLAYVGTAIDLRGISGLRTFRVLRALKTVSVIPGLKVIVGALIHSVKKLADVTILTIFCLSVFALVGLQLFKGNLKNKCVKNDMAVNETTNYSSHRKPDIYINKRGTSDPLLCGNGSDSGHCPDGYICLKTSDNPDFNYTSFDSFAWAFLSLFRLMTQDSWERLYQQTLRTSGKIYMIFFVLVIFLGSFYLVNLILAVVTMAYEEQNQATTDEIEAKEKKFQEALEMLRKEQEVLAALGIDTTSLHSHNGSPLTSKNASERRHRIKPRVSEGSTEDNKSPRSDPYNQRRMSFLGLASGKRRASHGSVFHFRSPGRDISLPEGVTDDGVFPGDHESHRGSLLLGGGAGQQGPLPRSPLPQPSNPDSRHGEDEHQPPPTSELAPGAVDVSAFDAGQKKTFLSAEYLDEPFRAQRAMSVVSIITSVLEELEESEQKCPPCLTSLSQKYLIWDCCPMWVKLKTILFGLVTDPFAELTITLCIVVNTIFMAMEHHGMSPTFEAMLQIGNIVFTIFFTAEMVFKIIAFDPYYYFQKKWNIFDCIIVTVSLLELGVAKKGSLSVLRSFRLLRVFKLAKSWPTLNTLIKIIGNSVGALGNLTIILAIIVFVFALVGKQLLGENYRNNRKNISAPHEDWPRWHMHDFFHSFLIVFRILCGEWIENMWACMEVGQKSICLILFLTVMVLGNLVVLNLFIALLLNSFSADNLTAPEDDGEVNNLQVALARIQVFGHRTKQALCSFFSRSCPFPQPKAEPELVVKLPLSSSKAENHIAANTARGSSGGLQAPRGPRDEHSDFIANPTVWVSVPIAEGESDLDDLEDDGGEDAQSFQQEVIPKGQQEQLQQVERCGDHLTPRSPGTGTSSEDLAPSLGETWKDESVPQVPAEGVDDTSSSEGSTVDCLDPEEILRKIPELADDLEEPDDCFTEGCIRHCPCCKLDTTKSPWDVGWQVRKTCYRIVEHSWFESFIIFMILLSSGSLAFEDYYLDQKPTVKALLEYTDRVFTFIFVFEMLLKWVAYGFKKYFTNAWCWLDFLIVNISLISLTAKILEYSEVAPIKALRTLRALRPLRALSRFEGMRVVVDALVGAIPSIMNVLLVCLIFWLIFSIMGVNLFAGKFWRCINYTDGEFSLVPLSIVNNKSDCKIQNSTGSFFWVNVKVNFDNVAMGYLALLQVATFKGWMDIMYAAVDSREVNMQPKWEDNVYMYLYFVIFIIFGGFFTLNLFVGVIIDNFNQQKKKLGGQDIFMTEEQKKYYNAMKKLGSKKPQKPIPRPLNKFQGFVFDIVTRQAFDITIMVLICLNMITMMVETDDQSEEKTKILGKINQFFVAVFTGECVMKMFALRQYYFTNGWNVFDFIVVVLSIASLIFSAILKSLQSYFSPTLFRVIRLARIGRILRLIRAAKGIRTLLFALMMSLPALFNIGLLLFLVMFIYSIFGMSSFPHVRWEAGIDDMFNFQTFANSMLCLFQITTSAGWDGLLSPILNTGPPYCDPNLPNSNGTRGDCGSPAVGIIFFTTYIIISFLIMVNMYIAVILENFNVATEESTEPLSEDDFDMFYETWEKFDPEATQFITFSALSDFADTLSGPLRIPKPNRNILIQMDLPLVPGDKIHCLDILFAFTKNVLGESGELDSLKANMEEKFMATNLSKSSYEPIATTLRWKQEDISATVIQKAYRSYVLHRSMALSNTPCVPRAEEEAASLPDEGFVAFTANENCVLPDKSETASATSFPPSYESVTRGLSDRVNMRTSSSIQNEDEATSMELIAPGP
T1 sequence (Q9NY72 23-215 partner): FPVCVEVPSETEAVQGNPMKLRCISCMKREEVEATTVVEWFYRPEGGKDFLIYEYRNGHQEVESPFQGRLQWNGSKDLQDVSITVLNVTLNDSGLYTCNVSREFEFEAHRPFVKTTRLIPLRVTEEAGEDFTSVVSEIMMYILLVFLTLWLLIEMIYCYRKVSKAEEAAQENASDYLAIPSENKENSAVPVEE

Cc1nc(F)ccc1Oc1ccc(C(F)(F)F)c(C)c1C(=O)Nc1cccc([S@@](C)(=O)=NC(=O)CO)c1 [Example 27B]
IC50 [1]: < 5 nM | IC50 [2]: < 5 nM

Cc1nc(F)ccc1Oc1ncc(C(F)(F)F)c(C)c1C(=O)Nc1cccc([S@@](C)(=O)=NC(=O)CO)c1 [Example 12D, (R)-2-((6-fluoro-2-methylpyridin-3-yl)oxy)-N-(3-(N-(2-hydroxyacetyl)-S-methylsulfonimidoyl)phenyl)-4-methyl-5-(trifluoromethyl)nicotinamide]
IC50 [3]: < 5 nM | IC50 [4]: < 5 nM

Cc1nc(F)ccc1Oc1nnc(C(F)(F)F)c(C)c1C(=O)Nc1cccc([S@@](C)(=O)=NC(=O)CO)c1 [Example 20D, (R)-3-((6-fluoro-2-methylpyridin-3-yl)oxy)-N-(3-(N-(2-hydroxyacetyl)-S-methylsulfonimidoyl)phenyl)-5-methyl-6-(trifluoromethyl)pyridazine-4-carboxamide]
IC50 [3]: 5 to 50 nM | IC50 [4]: 5 to 50 nM

Cc1nc(F)ccc1Oc1cc(C2CC2)c(C(F)(F)F)cc1C(=O)Nc1ccc(F)c([S@](C)(=N)=O)c1 [Example 52A]
IC50 [5]: < 5 nM | IC50 [6]: < 5 nM

CNCC(=O)N=[S@](C)(=O)c1cccc(NC(=O)c2c(Oc3ccc(F)nc3C)ccc(C(F)(F)F)c2F)c1 [Example 17B, (R)-2-fluoro-6-((6-fluoro-2-methylpyridin-3-yl)oxy)-N-(3-(S-methyl-N-(methylglycyl)sulfonimidoyl)phenyl)-3-(trifluoromethyl)benzamide]
IC50 [1]: < 5 nM | IC50 [2]: < 5 nM

COc1c(Oc2cc(C(F)(F)F)nnc2C(=O)Nc2cccc(S(C)(=O)=O)c2)ccc(F)c1F [Example 32C, 4-(3,4-difluoro-2-methoxyphenoxy)-N-(3-(methylsulfonyl)phenyl)-6-(trifluoromethyl)pyridazine-3-carboxamide]
IC50 [7]: 50 to 100 nM | IC50 [8]: 50 to 100 nM

Cc1nc(F)ccc1Oc1cc(C(F)(F)F)c(Cl)cc1C(=O)Nc1cccc([S@@](C)(=O)=NC(=O)CN)c1 [Example 4B, (R)-5-chloro-2-((6-fluoro-2-methylpyridin-3-yl)oxy)-N-(3-(N-glycyl-S-methylsulfonimidoyl)phenyl)-4-(trifluoromethyl)benzamide]
IC50 [1]: < 5 nM | IC50 [2]: < 5 nM

Cc1nc(F)ccc1Oc1cc(C(F)(F)F)c(Cl)cc1C(=O)Nc1ccnc(C(N)=O)c1 [Example 72A]
IC50 [5]: < 5 nM | IC50 [6]: < 5 nM

Cc1nc(F)ccc1Oc1cc(C(F)(F)F)cc(F)c1C(=O)Nc1ccnc([S@@](C)(=N)=O)c1 [Example 33A]
IC50 [5]: 5 to 50 nM | IC50 [6]: 5 to 50 nM

Cc1nc(F)ccc1Oc1cc(C(F)(F)F)c(Cl)cc1C(=O)Nc1ccc(F)c([S@@+](C)[O-])c1 [Example 56A]
IC50 [5]: < 5 nM | IC50 [6]: < 5 nM

Cc1nc(F)ccc1Oc1cc(C(F)(F)F)c(Cl)cc1C(=O)Nc1ccnc([S@](C)(=N)=O)c1 (single isomer, unassigned) [Example 6A]
IC50 [5]: < 5 nM | IC50 [6]: < 5 nM

Cc1nc(F)ccc1Oc1cc(C(F)(F)F)c(Cl)cc1C(=O)Nc1cccc([S@@](C)(=O)=NC(=O)C2(N)CCC2)c1 [Example 6B, (R)—N-(3-(N-(1-aminocyclobutane-1-carbonyl)-S-methylsulfonimidoyl)phenyl)-5-chloro-2-((6-fluoro-2-methylpyridin-3-yl)oxy)-4-(trifluoromethyl)benzamide]
IC50 [1]: < 5 nM | IC50 [2]: < 5 nM

Cc1nc(F)ccc1Oc1cc(C2CC2)c(C(F)(F)F)cc1C(=O)Nc1cccc([S@@](C)(=N)=O)c1 [Example 59A]
IC50 [5]: < 5 nM | IC50 [6]: < 5 nM

Cc1nc(F)ccc1Oc1nc(C(F)(F)F)c(Cl)c(C)c1C(=O)Nc1ccnc([S@](C)(=N)=O)c1 [Example 100C]
IC50 [7]: 5 to 50 nM | IC50 [8]: 5 to 50 nM

Cc1nc(F)ccc1Oc1cc(C(F)(F)F)c(Cl)cc1C(=O)Nc1cccc([S@@](C)(=O)=NC(=O)C(C)(C)N)c1 [Example 7B, (R)—N-(3-(N-(2-amino-2-methylpropanoyl)-S-methylsulfonimidoyl)phenyl)-5-chloro-2-((6-fluoro-2-methylpyridin-3-yl)oxy)-4-(trifluoromethyl)benzamide]
IC50 [1]: < 5 nM | IC50 [2]: < 5 nM

COc1cc(C#N)ccc1Oc1ncc(-c2ccc(C(F)F)cc2)c(C)c1C(=O)Nc1ccnc(S(C)(=N)=O)c1 (stereo not shown) [Example 125C]
IC50 [7]: > 200 nM | IC50 [8]: > 200 nM

Cc1nc(F)ccc1Oc1cc(C(F)(F)F)c(Cl)c(F)c1C(=O)NC12CC(C(N)=O)(C1)C2 [Example 47A]
IC50 [5]: > 200 nM | IC50 [6]: > 200 nM

Cc1nc(F)ccc1Oc1cc(C(F)(F)F)ccc1C(=O)Nc1cccc([S@](C)(=N)=O)c1 [Example 2A, (R)-2-((6-fluoro-2-methylpyridin-3-yl)oxy)-N-(3-(S-methylsulfonimidoyl)phenyl)-4-(trifluoromethyl)benzamide]
IC50 [5]: 5 to 50 nM | IC50 [6]: 5 to 50 nM

Cc1nc(F)ccc1Oc1ccc(C(F)(F)F)c(F)c1C(=O)Nc1cccc([S@@](C)(=O)=NC(=O)[C@@H](C)O)c1 [Example 19B, 2-fluoro-6-((6-fluoro-2-methylpyridin-3-yl)oxy)-N-(3-((R)—N—((R)-2-hydroxypropanoyl)-S-methylsulfonimidoyl)phenyl)-3-(trifluoromethyl)benzamide]
IC50 [1]: < 5 nM | IC50 [2]: < 5 nM

Cc1nc(F)ccc1Oc1cc(C(F)(F)F)c(Cl)cc1C(=O)Nc1cccc([S@@](C)(=O)=NC(=O)[C@H](C)O)c1 [Example 3B, 5-chloro-2-((6-fluoro-2-methylpyridin-3-yl)oxy)-N-(3-((R)—N—((S)-2-hydroxypropanoyl)-S-methylsulfonimidoyl)phenyl)-4-(trifluoromethyl)benzamide]
IC50 [1]: < 5 nM | IC50 [2]: < 5 nM

COc1cc(C#N)ccc1Oc1ncc(-c2cn(C)nc2C)c(C)c1C(=O)Nc1cccc([S@](C)(=N)=O)c1 [Example 27C, (R)-2-(4-cyano-2-methoxyphenoxy)-5-(1,3-dimethyl-1H-pyrazol-4-yl)-4-methyl-N-(3-(S-methylsulfonimidoyl)phenyl)nicotinamide]
IC50 [7]: 50 to 100 nM | IC50 [8]: 50 to 100 nM

Cc1nc(F)ccc1Oc1ncc(C(F)(F)F)c(C)c1C(=O)Nc1cccc([S@@](C)(=O)=NC(=O)[C@@H]2C[C@H](O)CN2)c1 [Example 27D, 2-((6-fluoro-2-methylpyridin-3-yl)oxy)-N-(3-((R)—N-((2S,4S)-4-hydroxypyrrolidine-2-carbonyl)-S-methylsulfonimidoyl)phenyl)-4-methyl-5-(trifluoromethyl)nicotinamide]
IC50 [3]: < 5 nM | IC50 [4]: < 5 nM

Cc1nc(F)ccc1Oc1ncc(C(F)(F)F)c(C)c1C(=O)Nc1cccc([S@@](C)(=O)=NC(=O)C2CNC2)c1 [Example 4D, (R)—N-(3-(N-(azetidine-3-carbonyl)-S-methylsulfonimidoyl)phenyl)-2-((6-fluoro-2-methylpyridin-3-yl)oxy)-4-methyl-5-(trifluoromethyl)nicotinamide]
IC50 [3]: < 5 nM | IC50 [4]: < 5 nM

Cc1nc(F)ccc1Oc1cc(C(F)(F)F)c(Cl)cc1C(=O)NC12CC(C(N)=O)(C1)C2 [Example 63A]
IC50 [5]: > 200 nM | IC50 [6]: > 200 nM

Cc1nc(F)ccc1Oc1nc2ccccc2cc1C(=O)Nc1cccc([S@](C)(=N)=O)c1 [Example 97C]
IC50 [7]: 50 to 100 nM | IC50 [8]: 50 to 100 nM

Cc1nc(F)ccc1Oc1ncc(C(F)(F)F)c(C)c1C(=O)Nc1cccc([S@@](C)(=O)=NC(=O)[C@@H]2CCCO2)c1 [Example 7D, 2-((6-fluoro-2-methylpyridin-3-yl)oxy)-4-methyl-N-(3-((R)—S-methyl-N—((S)-tetrahydrofuran-2-carbonyl)sulfonimidoyl)phenyl)-5-(trifluoromethyl)nicotinamide]
IC50 [3]: < 5 nM | IC50 [4]: < 5 nM

Cc1nc(F)ccc1Oc1ncc(C(F)F)c(C)c1C(=O)Nc1ccnc([S@](C)(=N)=O)c1 [Example 115C]
IC50 (P1 measurement, resting state block, holding potential −120 mV, third set of compounds, read-out: P1 (IC50, resting state block)): > 200 nM | IC50 (P2 measurement, inactivated state block, inactivation step −35 mV 10 sec, third set of compounds, read-out: P2 (IC50, inactivated state block)): > 200 nM

Cc1nc(F)ccc1Oc1cc(C2CC2)c(C(F)(F)F)cc1C(=O)Nc1cccc([S@](C)(=N)=O)c1 [Example 67A]
IC50 [5]: < 5 nM | IC50 [6]: < 5 nM

Cc1cc(C#N)ccc1Oc1cc(C(F)(F)F)nnc1C(=O)Nc1cccc(S(C)(=O)=O)c1 [Example 29C, 4-(4-cyano-2-methylphenoxy)-N-(3-(methylsulfonyl)phenyl)-6-(trifluoromethyl)pyridazine-3-carboxamide]
IC50 [7]: > 200 nM | IC50 [8]: > 200 nM

COc1cc(C#N)ccc1Oc1ncc(-c2ccc(C#N)cc2)c(C)c1C(=O)Nc1cccc([S@](C)(=N)=O)c1 [Example 20C, (R)-2-(4-cyano-2-methoxyphenoxy)-5-(4-cyanophenyl)-4-methyl-N-(3-(S-methylsulfonimidoyl)phenyl)nicotinamide]
IC50 [7]: 5 to 50 nM | IC50 [8]: 5 to 50 nM

Cc1nc(F)ccc1Oc1ncc(C(F)(F)F)c(C)c1C(=O)Nc1ccc(C(N)=O)nc1 [Example 111C]
IC50 [7]: > 200 nM | IC50 [8]: > 200 nM

Cc1nc(F)ccc1Oc1ncc(C(F)(F)F)c(C)c1C(=O)Nc1cccc([S@@](C)(=O)=NC(=O)[C@@H](C)O)c1 [Example 16D, 2-((6-fluoro-2-methylpyridin-3-yl)oxy)-N-(3-((R)—N—((R)-2-hydroxypropanoyl)-S-methylsulfonimidoyl)phenyl)-4-methyl-5-(trifluoromethyl)nicotinamide]
IC50 [3]: < 5 nM | IC50 [4]: < 5 nM
